Assay results taken from patent US9181244B1, “Substituted pyrido[2,3-c]pyridazin-4(1H)-ones as tumor necrosis factor alpha and phosphodiesterase 4 inhibitors” (Xuanzhu Pharma Co., Ltd., priority 2014, dated 2015).

Experiments:
PDE-4B1 = PDE-4B1 (Homo sapiens, UniProt Q07343); test: Lance cAMP assay, PDE-4B1 inhibition; format: biochemical; conditions: PDE4B1 0.18 nM, 20 nM cAMP, 90 min room temperature
Method: (§1) Experimental Methods: Lance cAMP Assay:
(§2) Test samples were precisely weighed, added to and dissolved in DMSO, mixed sufficiently so as to reach 100 μM. The above mother solution was then diluted with DMSO to reach 1 μM, and then diluted 4 times to reach 0.0038 nM.
(§3) To 384 well plate were added 2.5 μl of substrate 20 nM cAMP and 50 nl of compound DMSO solution, then added 2.5 μl of PDE enzyme (PDE4B1 0.18 nM, PDE4D3 0.024 nM) buffer solution (1×HBSS, 5 mM Hepes pH 7.4, 3 mM MgCl2, 0.1% BSA). After incubation at room temperature for 90 min, 5 μl of Alexa Fluor® 647-anti cAMP antibody was added and incubated for 30 min, 10 μl of detection reagent was added and incubated for 60 min, then its LANCE signal was detected under 665 nm, inhibition rate was calculated by the following formulation, and IC50 values were calculated from inhibition rate using XLfit. Inhibition rate=[signal value (MAX)−signl value (sample)]×100/[signal value (MAX)−signal value (MIN)]
(§4) Notation: MAX: blank control without enzyme; MIN: blank control without compound.

PDE-4D3 = PDE-4D3 (Homo sapiens, UniProt Q08499); test: Lance cAMP assay, PDE-4D3 inhibition; format: biochemical; conditions: PDE4D3 0.024 nM, 20 nM cAMP, 90 min room temperature
Chain of PDE-4D3 (Q08499 1-673 isoform Q08499-2): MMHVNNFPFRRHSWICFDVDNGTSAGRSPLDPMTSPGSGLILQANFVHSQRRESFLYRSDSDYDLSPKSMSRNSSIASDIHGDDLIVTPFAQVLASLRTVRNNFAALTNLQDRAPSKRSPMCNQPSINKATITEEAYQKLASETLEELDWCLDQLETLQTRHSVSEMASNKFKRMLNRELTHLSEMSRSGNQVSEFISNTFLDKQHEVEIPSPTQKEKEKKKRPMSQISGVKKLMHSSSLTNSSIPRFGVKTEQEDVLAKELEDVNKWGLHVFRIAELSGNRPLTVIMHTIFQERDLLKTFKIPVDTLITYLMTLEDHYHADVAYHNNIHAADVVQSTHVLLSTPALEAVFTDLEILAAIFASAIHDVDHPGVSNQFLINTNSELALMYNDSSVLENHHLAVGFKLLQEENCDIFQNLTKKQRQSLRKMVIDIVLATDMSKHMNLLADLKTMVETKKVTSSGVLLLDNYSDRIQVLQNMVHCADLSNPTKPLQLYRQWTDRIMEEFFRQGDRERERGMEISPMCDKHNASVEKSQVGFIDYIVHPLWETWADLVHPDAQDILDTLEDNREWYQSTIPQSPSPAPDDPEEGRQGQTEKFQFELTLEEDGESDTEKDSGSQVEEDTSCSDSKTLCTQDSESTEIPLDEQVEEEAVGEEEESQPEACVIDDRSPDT
Method: as §1, §2, §3, §4

TNF-α = test: Inhibition activity of TNF-α in whole blood test (LPS-stimulated, ELISA); format: cell-based; conditions: human whole blood diluted 1:1 with DPBS, lipopolysaccharide 100 ng/ml, overnight
Method: Experiment 2: Measurement of Inhibition Activity of TNF-α in Whole Blood Test
Fresh blood was collected from health human body using heparin sodium tubes. In Grade II Bio-safety Cabinet, whole blood was diluted in the ratio of 1:1 with DPBS (Dulbecco's Phosphate Buffered Saline). 100 μl of the diluted blood samples were taken and added to each of wells of a 96-well plate. 0.5 μl of compound solution was added to each well. The compound was formulated with dimethyl sulfoxide. The 96-well plate was placed in CO2 incubator and incubated for 30 min, then lipopolysaccharide in final concentration of 100 ng/ml was added, and incubated overnight. The 96-well plate was shaked for homogenization, and from each well 10 μl of solution was taken and transferred to another 96-well plate for ELISA to measure TNF-α content. The following formula was used to calculate inhibition rate, and the inhibition rate was used for calculation of IC50 value with XLfit. Inhibition rate=[signal value (MAX)−signal value (sample)]×100/[signal value (MAX)−signal value (MIN)]
Notation: MAX represents blank control stimulated with only lipopolysaccharide; MIN represents positive control with 1 μmol/l of dexamethasone.

PDE4D, PDE4B = conditions: some studies have shown; cited from earlier work

Chain of PDE-4B1 (Q07343 whole entry, species assumed): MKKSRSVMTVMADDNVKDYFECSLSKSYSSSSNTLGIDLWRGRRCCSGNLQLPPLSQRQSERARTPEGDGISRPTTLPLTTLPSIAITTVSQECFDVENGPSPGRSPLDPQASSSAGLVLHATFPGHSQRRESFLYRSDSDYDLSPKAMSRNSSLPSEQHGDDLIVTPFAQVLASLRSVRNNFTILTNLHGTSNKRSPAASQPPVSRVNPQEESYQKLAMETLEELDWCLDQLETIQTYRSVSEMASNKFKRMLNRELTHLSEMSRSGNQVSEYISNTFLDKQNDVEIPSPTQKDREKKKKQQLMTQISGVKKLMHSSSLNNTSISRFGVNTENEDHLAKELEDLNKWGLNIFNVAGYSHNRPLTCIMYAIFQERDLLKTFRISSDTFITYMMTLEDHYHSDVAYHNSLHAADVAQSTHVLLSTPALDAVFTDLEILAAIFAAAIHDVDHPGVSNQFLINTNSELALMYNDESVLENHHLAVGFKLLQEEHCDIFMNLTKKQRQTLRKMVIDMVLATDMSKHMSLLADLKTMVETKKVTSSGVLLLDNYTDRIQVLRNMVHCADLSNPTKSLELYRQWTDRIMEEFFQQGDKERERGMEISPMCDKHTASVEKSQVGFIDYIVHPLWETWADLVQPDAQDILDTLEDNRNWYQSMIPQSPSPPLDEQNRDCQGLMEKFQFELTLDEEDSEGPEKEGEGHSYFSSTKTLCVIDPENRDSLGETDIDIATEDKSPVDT

Compound | IC50 (PDE-4B1) [nM] | IC50 (PDE-4D3) [nM] | IC50 (TNF-α) [nM] | activity to PDE4D compared with activity to PDE4B (PDE4D, PDE4B)
O=C(NC1CC1)c1nn(-c2cccc(C#Cc3cccnc3)c2)c2ncccc2c1=O [Compound 1, N-cyclopropyl-4-oxo-1-[3-(pyridin-3-ylethynyl)phenyl]-1,4-dihydropyridino[2,3-c]pyridazine-3-formamide] | 2.68 | 2.19 | 51 | –
O=C(NC1CC1)c1nn(-c2cccc(Sc3cccnc3)c2)c2ncccc2c1=O [Compound 2, N-cyclopropyl-4-oxo-1-[3-(pyridin-3-ylthio)phenyl]-1,4-dihydropyridino[2,3-c]pyridazine-3-carboxamide] | 161 | 250 | – | –
O=C(NC1CC1)c1nn(-c2cccc(Oc3cccnc3)c2)c2ncccc2c1=O [Compound 3, N-cyclopropyl-4-oxo-1-(3-(pyridin-3-yloxy)phenyl)-1,4-dihydropyridino[2,3-c]pyridazine-3-carboxamide] | 305 | 358 | – | –
Cilomilast | – | – | – | 10 time
Roflumilast | – | – | – | equivalent activity

Continued, in another order:

IC50 (PDE-4B1) [nM] | IC50 (PDE-4D3) [nM] | IC50 (TNF-α) [nM] | Compound | activity to PDE4D compared with activity to PDE4B (PDE4D, PDE4B)
– | – | 3.3 | C[C@@H]1C[C@H]2[C@@H]3CCC4=CC(=O)C=C[C@]4(C)[C@@]3(F)[C@@H](O)C[C@]2(C)[C@@]1(O)C(=O)CO [Dexamethasone, reference compound] | –
5.59 | 4.58 | 40.3 | O=C(NC1CC1)c1cn(-c2cccc(C#Cc3ccc[n+]([O-])c3)c2)c2ncccc2c1=O [MK-0873, reference compound] | –
28.1 | 18.9 | 109 | O=C(NC1CC1)c1nn(-c2cccc(C#Cc3ccc[n+]([O-])c3)c2)c2ncccc2c1=O [Nitrogen oxide of Compound 1, 3-[[3-[3-(cyclopropylcarbamoyl)-4-oxo-pyridino[2,3-c]pyridazine-1(4H)-yl]phenyl]ethynyl]pyridine-1-oxide] | –
526 | 643 | – | O=C(NC1CC1)c1nn(-c2cccc(Oc3ccc[n+]([O-])c3)c2)c2ncccc2c1=O [Nitrogen oxide of Compound 3] | –
